Test results reported in ChEMBL document CHEMBL1201862, “PubChem BioAssay data set” (2004).
The source made the active and inactive calls.

What was measured:
[1] = NIH-3T3 fibroblast cytotoxicity, dose response, cytotoxicity control, cell-based, fluorescence, Alamar Blue, secondary assay (AID 2327); type: functional;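 further: NIH-3T3 mouse fibroblasts cultured with fluconazole at 8 µg/mL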
[2] = C. albicans growth with fluconazole, confirmation, fluorescence, retest (AID 2467); type: functional, cell-based
[3] = tested on: HEK293; assay: inhibitors of LMP1-driven NF-kB reporter, dose response, cell-based, HEK293, luciferase, cherry-pick (AID 588343); type: functional; details: Homo sapiens
[4] = tested on: Vero; assay: cells; type: functional, cell-based; details: Chlorocebus sabaeus
[5] = tested on: Vero; assay: cells; type: functional; details: Chlorocebus sabaeus
[6] = molecular target: T1, Corticotropin-releasing factor receptor 2/Corticotropin-releasing factor-binding protein (Homo sapiens, UniProt P24387+Q13324); assay: Dose Response confirmation of uHTS hits for small molecule antagonists of the CRF-binding protein and CRF-R2 receptor complex.; type: functional; details: read-out: IC50_Mean
T1 sequence (Q13324 whole entry): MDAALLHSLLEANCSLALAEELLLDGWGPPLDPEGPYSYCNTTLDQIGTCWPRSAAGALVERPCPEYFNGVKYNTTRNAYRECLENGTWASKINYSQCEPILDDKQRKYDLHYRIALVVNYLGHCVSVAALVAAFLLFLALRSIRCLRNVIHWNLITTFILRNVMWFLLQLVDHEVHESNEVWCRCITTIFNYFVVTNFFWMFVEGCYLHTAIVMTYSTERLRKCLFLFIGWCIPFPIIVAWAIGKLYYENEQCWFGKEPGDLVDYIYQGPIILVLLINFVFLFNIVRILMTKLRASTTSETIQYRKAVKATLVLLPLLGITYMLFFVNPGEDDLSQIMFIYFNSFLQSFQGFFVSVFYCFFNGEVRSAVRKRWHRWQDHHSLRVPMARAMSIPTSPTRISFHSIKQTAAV
T1 sequence (P24387 whole entry): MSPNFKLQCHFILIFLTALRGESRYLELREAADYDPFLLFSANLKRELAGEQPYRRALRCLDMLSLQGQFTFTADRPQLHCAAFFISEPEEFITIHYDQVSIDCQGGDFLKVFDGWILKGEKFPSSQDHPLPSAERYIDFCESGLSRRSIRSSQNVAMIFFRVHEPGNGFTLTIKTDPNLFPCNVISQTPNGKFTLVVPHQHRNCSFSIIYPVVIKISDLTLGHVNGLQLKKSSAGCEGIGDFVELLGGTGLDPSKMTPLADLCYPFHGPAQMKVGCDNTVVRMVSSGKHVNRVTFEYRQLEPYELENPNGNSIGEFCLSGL

[7] = molecular target: T1, Corticotropin-releasing factor receptor 2/Corticotropin-releasing factor-binding protein; assay: activators of CRF receptor 2 with binding protein – uHTS hits, confirmation (AID 602473); type: functional; details: read-out: EC50_Mean
[8] = CRF-BP/CRF-R2 complex antagonists, dose response, cell-based, uHTS hits, 384-well (AID 651639); type: functional, Homo sapiens; details: read-out: IC50_Mean
[9] = tested on: H9c2; assay: cells; type: functional, cell-based; details: Rattus norvegicus, H9c2, Myocardium;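 further: confirmatory concentration-response retest of ultra-high-throughput screening hits for modulation of myocardial damage; cell death induced by hydrogen peroxide oxidative stress; compound pretreatment for 60 min then peroxide exposure for 2 h; potency is for protecting the cells against peroxide damage rather than for killing them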
[10] = molecular target: T2, Protein skinhead-1 (Caenorhabditis elegans, UniProt P34707); type: functional
T2 sequence (P34707 whole entry): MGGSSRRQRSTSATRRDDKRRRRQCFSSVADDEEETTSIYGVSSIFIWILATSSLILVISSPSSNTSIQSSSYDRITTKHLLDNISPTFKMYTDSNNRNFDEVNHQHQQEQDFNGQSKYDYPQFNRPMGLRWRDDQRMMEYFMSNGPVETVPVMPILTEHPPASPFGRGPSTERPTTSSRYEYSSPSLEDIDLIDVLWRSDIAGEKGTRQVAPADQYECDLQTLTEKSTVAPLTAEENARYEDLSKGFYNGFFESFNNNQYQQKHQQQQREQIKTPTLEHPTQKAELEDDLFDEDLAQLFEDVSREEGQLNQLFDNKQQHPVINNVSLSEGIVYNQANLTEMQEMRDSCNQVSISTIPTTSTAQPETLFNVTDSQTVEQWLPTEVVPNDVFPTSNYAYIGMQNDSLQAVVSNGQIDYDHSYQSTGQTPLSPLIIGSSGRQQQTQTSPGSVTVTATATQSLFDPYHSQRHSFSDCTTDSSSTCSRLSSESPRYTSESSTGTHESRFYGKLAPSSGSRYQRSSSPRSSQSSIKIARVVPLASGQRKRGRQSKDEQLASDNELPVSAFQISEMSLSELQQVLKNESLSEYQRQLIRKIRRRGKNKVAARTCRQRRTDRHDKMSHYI

[11] = molecular target: T3, High affinity choline transporter 1 (Homo sapiens, UniProt Q9GZV3); assay: CHT inhibitors, dose response, cell-based, 5-point CRC, membrane potential dye (AID 504840); type: functional
T3 sequence (Q9GZV3 whole entry): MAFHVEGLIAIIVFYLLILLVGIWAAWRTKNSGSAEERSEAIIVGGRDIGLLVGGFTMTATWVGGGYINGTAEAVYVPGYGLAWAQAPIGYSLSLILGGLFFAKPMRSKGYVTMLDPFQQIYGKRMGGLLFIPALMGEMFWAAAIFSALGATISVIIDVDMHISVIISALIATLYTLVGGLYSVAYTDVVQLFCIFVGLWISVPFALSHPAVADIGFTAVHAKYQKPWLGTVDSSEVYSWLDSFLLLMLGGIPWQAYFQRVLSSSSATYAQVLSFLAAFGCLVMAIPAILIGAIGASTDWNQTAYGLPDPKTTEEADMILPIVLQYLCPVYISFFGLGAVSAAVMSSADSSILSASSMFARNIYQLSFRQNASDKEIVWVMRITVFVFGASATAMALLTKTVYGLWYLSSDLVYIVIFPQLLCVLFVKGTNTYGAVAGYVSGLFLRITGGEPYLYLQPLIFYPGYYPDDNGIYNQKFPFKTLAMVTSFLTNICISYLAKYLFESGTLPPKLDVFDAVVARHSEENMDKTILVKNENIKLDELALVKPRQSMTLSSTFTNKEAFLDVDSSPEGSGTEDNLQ

[12] = molecular target: Genome polyprotein (dengue virus type 2, UniProt P29990); assay: Dengue-2 NS5 methyltransferase inhibitors, primary screen, biochemical, confirmation dose response (AID 588689); type: functional
Sequence of Genome polyprotein (P29990 2492-3391 limits assumed): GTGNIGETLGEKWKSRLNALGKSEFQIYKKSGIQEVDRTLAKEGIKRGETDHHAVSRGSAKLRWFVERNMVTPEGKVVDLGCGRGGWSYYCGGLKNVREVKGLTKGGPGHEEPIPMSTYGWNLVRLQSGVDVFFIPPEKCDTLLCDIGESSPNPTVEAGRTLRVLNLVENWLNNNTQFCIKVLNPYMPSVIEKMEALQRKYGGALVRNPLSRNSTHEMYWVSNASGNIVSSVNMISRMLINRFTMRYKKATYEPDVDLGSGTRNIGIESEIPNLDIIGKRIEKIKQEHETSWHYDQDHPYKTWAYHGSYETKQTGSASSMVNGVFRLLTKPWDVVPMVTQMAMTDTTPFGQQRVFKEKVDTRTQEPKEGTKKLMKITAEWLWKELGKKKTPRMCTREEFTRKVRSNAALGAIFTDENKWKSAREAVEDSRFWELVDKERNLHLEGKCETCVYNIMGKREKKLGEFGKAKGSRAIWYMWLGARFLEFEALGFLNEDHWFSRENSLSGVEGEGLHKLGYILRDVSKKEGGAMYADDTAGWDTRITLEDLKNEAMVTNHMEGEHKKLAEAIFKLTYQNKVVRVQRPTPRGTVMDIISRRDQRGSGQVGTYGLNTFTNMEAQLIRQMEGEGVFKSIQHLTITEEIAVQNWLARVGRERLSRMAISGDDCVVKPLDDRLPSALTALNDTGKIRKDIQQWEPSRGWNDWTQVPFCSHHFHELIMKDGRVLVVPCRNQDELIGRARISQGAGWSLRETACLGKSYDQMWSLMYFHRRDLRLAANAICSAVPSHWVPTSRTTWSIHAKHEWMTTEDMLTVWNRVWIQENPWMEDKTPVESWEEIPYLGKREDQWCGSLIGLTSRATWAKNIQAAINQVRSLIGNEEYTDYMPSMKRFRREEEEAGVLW

[13] = inhibitors of intracellular T. cruzi replication, confirmation, NIH3T3 host cells, beta-gal luminescence (AID 2044); type: functional, cell-based;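 further: intracellular parasites grown in NIH/3T3 mouse fibroblasts as host cells; luminescent beta-galactosidase reporter signal from transgenic T. cruzi replicating inside host cells; inhibitors lower the luminescence signal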
[14] = cytotoxicity toward NIH3T3 fibroblasts, dose response, counter-screen, cell-based, ATP luminescence, mouse fibroblasts (AID 2010); type: functional;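 further: cells exposed to compound for about 90 hours before reading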
[15] = Shn3 3'UTR reporter inhibitors, dose response, cell-based, Clone20 osteoblasts, firefly luciferase, cherry-picked (AID 624132); type: functional;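 further: firefly luciferase luminescence from reporter carrying the Shn3 3'UTR in osteoblasts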
[16] = HepG2 cell cytotoxicity, dose response, cytotoxicity control for Shn3 inhibitor project, CellTiter-Glo, cherry-picked (AID 624134); type: functional, cell-based
[17] = control 3'UTR Renilla luciferase suppression, dose response, counter-screen for Shn3 inhibitor project, cell-based, Clone20-Shn3RL, cherry-picked (AID 624133); type: functional
[18] = molecular target: Paired box protein Pax-8 (Homo sapiens, UniProt Q06710); assay: inhibitors of PAX8-driven TPO luciferase reporter, dose response, RMG-I cells, cherry-pick (AID 687027); type: functional, cell-based;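 further: luciferase reporter driven by Pax8 target thyroperoxidase promoter measured by SteadyGlo luminescence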
Sequence of Paired box protein Pax-8 (Q06710 whole entry): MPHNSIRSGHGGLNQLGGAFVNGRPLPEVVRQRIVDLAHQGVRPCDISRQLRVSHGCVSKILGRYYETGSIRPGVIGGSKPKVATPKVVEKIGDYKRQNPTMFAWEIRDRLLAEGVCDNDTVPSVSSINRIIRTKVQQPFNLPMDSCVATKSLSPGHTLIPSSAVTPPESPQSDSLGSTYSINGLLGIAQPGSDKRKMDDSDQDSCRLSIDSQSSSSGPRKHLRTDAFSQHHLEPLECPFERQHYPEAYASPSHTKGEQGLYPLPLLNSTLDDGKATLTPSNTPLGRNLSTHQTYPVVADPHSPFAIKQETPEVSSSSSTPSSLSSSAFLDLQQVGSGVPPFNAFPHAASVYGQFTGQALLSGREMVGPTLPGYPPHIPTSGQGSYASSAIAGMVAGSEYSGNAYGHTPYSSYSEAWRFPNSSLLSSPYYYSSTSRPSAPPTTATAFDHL

[19] = P. falciparum Dd2 growth inhibitors, dose response, SYBR Green, cherry-picked samples (AID 1159567); type: functional, cell-based
[20] = HepG2 cell cytotoxicity, dose response, cytotoxicity control, cherry-picked samples (AID 1159577); type: functional, cell-based
[21] = P. falciparum 3D7-ScDHODH growth inhibitors, dose response, SYBR Green, dry powder samples (AID 1159570); type: functional, cell-based;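 further: parasite growth measured after 72 hours of compound exposure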
[22] = P. falciparum Dd2 growth inhibitors, dose response, SYBR Green, dry powder samples (AID 1159566); type: functional, cell-based;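 further: potency for growth inhibition with lower SYBR green DNA signal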
[23] = P. falciparum ATP4 D1247Y mutant growth inhibitors, dose response, NITD609-resistant line, SYBR Green, dry powder (AID 1159571); type: functional, cell-based;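 further: parasites synchronized at ring stage by sorbitol before testing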
[24] = HeLa cell cytotoxicity, dose response, cytotoxicity control for MgcRacGAP inhibitor project (AID 624300); type: functional
[25] = molecular target: T4, Rac GTPase-activating protein 1 (Homo sapiens, UniProt Q9H0H5); assay: MgcRacGAP GTPase-activating activity inhibitors, confirmation, biochemical, ADP Hunter fluorescence, primary and confirmatory (AID 624330); type: functional
T4 sequence (Q9H0H5 whole entry): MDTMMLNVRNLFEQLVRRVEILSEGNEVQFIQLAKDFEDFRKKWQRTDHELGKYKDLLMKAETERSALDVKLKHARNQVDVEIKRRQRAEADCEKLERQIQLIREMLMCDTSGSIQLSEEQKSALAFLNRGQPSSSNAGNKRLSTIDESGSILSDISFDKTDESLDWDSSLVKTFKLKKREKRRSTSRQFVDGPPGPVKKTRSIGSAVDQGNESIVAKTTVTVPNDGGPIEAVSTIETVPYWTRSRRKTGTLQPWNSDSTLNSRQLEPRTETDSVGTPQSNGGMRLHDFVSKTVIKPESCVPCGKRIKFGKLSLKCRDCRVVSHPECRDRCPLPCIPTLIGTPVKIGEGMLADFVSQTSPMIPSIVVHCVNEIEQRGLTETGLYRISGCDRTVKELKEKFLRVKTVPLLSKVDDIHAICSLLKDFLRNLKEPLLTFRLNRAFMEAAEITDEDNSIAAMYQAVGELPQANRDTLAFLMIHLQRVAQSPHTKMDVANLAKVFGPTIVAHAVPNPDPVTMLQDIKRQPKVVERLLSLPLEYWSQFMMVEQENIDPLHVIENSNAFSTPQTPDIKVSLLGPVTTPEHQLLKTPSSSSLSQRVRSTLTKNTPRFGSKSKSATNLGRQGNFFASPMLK

Brc1cccc(CSc2nnc(-c3ccncc3)o2)c1
EC50 [1]: 41.1 µM (active) | EC50 [2]: > 38 µM (not active) | AC50 [3]: 47 µM (active)

Clc1ccc(-c2cc(C3CCNCC3)[nH]n2)c(Cl)c1
IC50 [4]: 24.8 µM (active) | CC50 [5]: > 25 µM (active)

NC(=O)c1ccc(NCc2ccco2)c([N+](=O)[O-])c1
IC50 [6]: 5.79 µM (active) | EC50 [7]: > 53 µM (inactive) | IC50 [8]: 3.57 µM (active)

Cc1ccc(-c2csc(Nc3ccc(C(=O)O)cc3)[n+]2Cc2ccccc2)cc1
IC50 [6]: 13 µM (active) | EC50 [7]: > 53 µM (inactive) | IC50 [8]: 16.5 µM (active)

O=c1oc2ccc3ccccc3c2cc1-c1nnc(-c2ccccc2)o1
IC50 [9]: > 79 µM (inactive) | IC50 [6]: < 0.368 µM (active) | EC50 [7]: > 53 µM (inactive) | IC50 [10]: > 100 µM (inactive) | IC50 [8]: 0.39 µM (active)

CCCN1C(=O)c2ccccc2NC1c1ccc(OC)c(CSc2ccccn2)c1 (stereo unspecified)
IC50 [6]: 46.2 µM (active) | EC50 [7]: > 53 µM (inactive) | IC50 [8]: > 20 µM (inactive)

COc1cccc(/C=C2\SC(=S)N(NS(=O)(=O)c3ccccc3)C2=O)c1OC
IC50 [11]: 0.692 µM (active) | IC50 [12]: 41.1 µM (active) | IC50 [6]: 22.3 µM (active) | EC50 [7]: > 53 µM (inactive)

CCCc1nc2ccc(Br)cc2c(=O)n1-c1ccc([N+](=O)[O-])c(C(F)(F)F)c1
EC50 [13]: 2 µM (active) | EC50 [14]: > 60 µM (not active) | AC50 [3]: 29.2 µM (active) | AC50 [15]: 15.7 µM (active) | AC50 [16]: 7.4 µM (active) | AC50 [17]: 11.7 µM (active)

CC1(CCCc2ccc(N(CCCl)CCCl)cc2)NC(=O)NC1=O (stereo unspecified)
AC50 [3]: 4.51 µM (active)

N#C/C(=N\Nc1ccccc1Cl)C(=O)c1ccccc1
IC50 [6]: 10.2 µM (active) | EC50 [7]: > 53 µM (inactive) | IC50 [8]: > 20 µM (inactive)

CC(=O)O[C@H]1C[C@H](O[C@H]2[C@@H](O)C[C@H](O[C@H]3[C@@H](O)C[C@H](O[C@H]4CC[C@@]5(C)[C@H](CC[C@@H]6[C@@H]5CC[C@]5(O)[C@@H](C7=CC(=O)OC7)CC[C@]65O)C4)O[C@@H]3C)O[C@@H]2C)O[C@H](C)[C@H]1O[C@@H]1O[C@H](CO)[C@@H](O)[C@H](O)[C@H]1O
IC50 [4]: < 0.05 µM (active) | CC50 [5]: 1.78 µM (active) | AC50 [18]: 1.98 µM (active)

COc1ccc(NC(=O)Nc2cccc3c2O[C@H](CN(C)Cc2ccc(-c4ccccc4)cc2)[C@@H](C)CN([C@@H](C)CO)C3=O)cc1
AC50 [19]: 3.25 µM (active) | AC50 [20]: 16.2 µM (active)

COc1ccc(S(=O)(=O)N2CC[C@@H]3[C@H]2c2cc(C#Cc4ccccc4OC)ccc2N[C@@H]3CO)cc1
AC50 [19]: 11.3 µM (active) | AC50 [20]: > 39 µM (inactive)

OC[C@H]1[C@@H](c2ccc(/C=C/c3ccccc3)cc2)[C@@H]2CN(Cc3cncnc3)CCCCN12
AC50 [19]: 4.13 µM (active) | AC50 [20]: 20.3 µM (active)

COc1ccc(C#Cc2ccc3c(c2)O[C@@H](CN(C)S(=O)(=O)c2ccccc2F)[C@@H](C)CN([C@H](C)CO)S3(=O)=O)cc1
AC50 [21]: 1.43 µM (active) | AC50 [19]: 1.23 µM (active) | AC50 [22]: 1.07 µM (active) | AC50 [23]: 1.16 µM (active)

C[C@@H]1CN([C@@H](C)CO)C(=O)Cc2cc(NC(=O)Nc3ccccc3)ccc2O[C@H]1CN(C)Cc1ccc2c(c1)OCO2
AC50 [19]: 3.97 µM (active) | AC50 [20]: > 39 µM (inactive)

OC[C@@H]1Nc2ccc(C#Cc3ccccc3)cc2[C@@H]2[C@H]1CCN2Cc1nccs1
AC50 [21]: 3.71 µM (active) | AC50 [19]: 2.95 µM (active) | AC50 [22]: 3.5 µM (active) | AC50 [20]: > 39 µM (inactive) | AC50 [23]: 3.32 µM (active)

COc1cccc2c1C(=O)c1c(O)c3c(c(O)c1C2=O)C[C@@](O)(C(=O)CO)C[C@@H]3OC1CC(N)C(O)C(C)O1 (stereo partly specified)
IC50 [4]: > 25 µM (active) | CC50 [24]: 23.5 µM (active) | IC50 [25]: 53.5 µM (active)
